From publication PMC11161800, “Principles of peptide selection by the transporter associated with antigen processing” (Proceedings of the National Academy of Sciences of the …, 2024)

System: human TAP
Assay: NADH-coupled steady-state ATP hydrolysis (ATPase) assay of purified TAP
Format: biochemical
Details: 28 °C; for Stimulation of ATP hydrolysis by shortened b27 peptides: TAP 0.5 µM, peptides 20 µM, ATP 3 mM, means of three technical replicates of three biological replicates (n = 9), one-way ANOVA, Fig. 4A
Protocol: Steady-state ATP hydrolysis activity was measured using a nicotinamide adenine dinucleotide (NADH)-coupled assay. Purified TAP was diluted to a final concentration of 0.5 µM in freshly prepared reaction buffer containing 50 mM HEPES (pH 8.0 with KOH), 150 mM KCl, 2 mM MgCl2, 2 mM DTT, 0.004% (w/v) digitonin, 60 µg mL^−1 pyruvate kinase (Roche), 32 µg mL^−1 lactate dehydrogenase (Roche), 9 mM phosphoenolpyruvate and 150 µM NADH. Peptide substrates were added to a final concentration of 20 µM unless specified otherwise. Then, 30 µL aliquots were dispensed into Corning 384-well Black/Clear Flat Bottom Polystyrene NBS Microplates, and reactions were initiated by the addition of 3 mM ATP. NADH consumption was measured by monitoring the rate of NADH fluorescence depletion at λex = 340 nm and λem = 445 nm at 28 °C using an Infinite M1000 microplate reader (Tecan). Data were converted to ATP turnover with an NADH standard curve. Technical replicates were measured in parallel from the same protein preparation on the same day and biological replicates were measured from different protein preparations from different cells on different days.

| Substance | Stimulation of ATP hydrolysis by shortened b27 peptides | Stimulation of ATP hydrolysis by shortened b27 peptides (listed as B27′) | ATPase activity as a function of b27 concentration (0.5 µM TAP, 3 mM ATP, pH 8.0, three technical replicates (n = 3), Fig. 1B) |
| --- | --- | --- | --- |
| RRYQSTEL [b27′, 8-mer modified b27 peptide lacking the central lysine at position five] | stimulated ATP hydrolysis | increased the ATPase activity of TAP to a slightly greater extend compared to b27 | – |
| RRYSTEL [b27″, 7-mer modified b27 peptide lacking the lysine and the adjacent glutamine] | neither of the 7-mer peptides were able to stimulate ATP hydrolysis and not | – | – |
| b27: 9-mer peptide RRYQKSTEL, well-characterized substrate transported by TAP and presented by HLA-B27 [reference compound] | – | – | stimulated in a dose-dependent manner |
| b27″(Q): 7-mer modified b27 peptide lacking the lysine and the adjacent serine (RRYQTEL) | neither of the 7-mer peptides were able to stimulate ATP hydrolysis and not | – | – |
